Reference: patent US8507656B2, “Stabilized angiopoietin-2 antibodies and uses thereof” (MedImmune Limited, priority 2008, dated 2013)
Where two headings read alike, the source gives them in different places.

What was measured:
[1] = test system: MDA-MB-231 xenograft tumors; test: MDA-MB-231 orthotopic breast cancer xenograft model; type: in vivo; conditions: 3.19.3 10 mg/kg 2×wk i.p., AZD6495 30 mg/kg bid p.o. 18 d, combination of both
Description: The anti-tumor activity of the anti-Angiopoietin-2 monoclonal antibody 3.19.3 in combination with the small molecule CSF1R tyrosine kinase inhibitor AZD6495 was evaluated in a xenograft model of human breast carcinoma using the MDA-MB-231 cell line (FIG. 5a).
Breast adenocarcinoma MDA-MB-231 cells were cultured in flasks as routine until the cells reach sub-confluence. Immunodeficient 7-10 week old female nude mice were orthotopically implanted with 8×10^6 MDA-MB-231 cells suspended 1:1 in Matrigel into the mammary fat pad. The mice were then randomized into cohorts containing 10 mice once the tumors reached approximately 100 mm^3. The mice were treated by intraperitoneally (IP) injection with mAb 3.19.3 (10 mg/kg) twice per week for 3 weeks thereafter, or by oral administration of AZD6495 (30 mg/kg) following bid dosing for 18 days. […] The body weights of each animal, and the dimensions of each tumor were measured twice per week. The volume of the tumor was calculated as: Volume=Length×(Width)^2×0.5 cm^3, or by bilateral Vernier caliper measurement and, taking length to be the longest diameter across the tumor and width the corresponding perpendicular, calculated using the formula (π/6)×(length×width)×√(length×width). Growth inhibition from the start of treatment was assessed by comparison of the differences in tumor volume between control and treated groups.

Colo205 xenograft tumors = test: Colo205 xenograft model of colorectal cancer; type: in vivo; conditions: 3.19.3 10 mg/kg 2×wk i.p., Gemcitabine 50 mg/kg q3dx2 i.v., combination of both
Description: The anti-tumor activity of 3.19.3 was evaluated in combination with Gemcitabine in the Colo205 xenograft model of colorectal cancer. Colo205 cells were cultured in flasks as routine until the cells reached sub-confluence. Cell suspensions containing approximately 3×10E6 cells were injected subcutaneously into the flank of female Swiss nude mice. When the tumor volume reached 200 mm^3, the mice were randomized in treatment groups of 8-10 mice and the treatments were initiated. 3.19.3 (10 mg/kg) in saline was injected intraperitoneally, twice per week for 2 weeks. Gemcitabine (50 mg/kg) was administered by intravenous administration following a q3d schedule. The dimensions of each tumor and body weights were measured at least twice per week. The volume of the tumor was calculated as: Volume=Length×(Width)×0.5 (cm^3). […] The % tumor growth inhibition achieved is as follows: […]

Calu6 xenograft tumors = type: in vivo; conditions: 3.19.3 10 mg/kg 2×wk i.p., Docetaxel 15 mg/kg/week i.v., combination of both
Description: (§1) The anti-tumor activity of 3.19.3 was evaluated in combination with Docetaxel in the Calu6 xenograft model of lung cancer. Calu6 cells were cultured in flasks as routine until the cells reached sub-confluence. Cell suspensions containing approximately 3×10E6 cells were injected subcutaneously into the flank of female Swiss nude mice. When the tumor volume reached 200 mm^3, the mice were randomized in treatment groups of 8-10 mice and the treatments were initiated. 3.19.3 (10 mg/kg) in saline was injected intraperitoneally, twice per week for 2 weeks. Docetaxel (15 mg/kg) was administered by intravenous administration following a weekly schedule. The dimensions of each tumor and body weights were measured at least twice per week. The volume of the tumor was calculated as: Volume=Length×(Width)×0.5 (cm^3).

H460 xenograft tumors [2] = type: in vivo; conditions: 3.19.3 10 mg/kg 2×wk i.p., Oxaliplatin 5 mg/kg/week i.p., combination of both
Description: as §1, with “Oxaliplatin” for “Docetaxel”, “H460” for “Calu6”, “Oxaliplatin (5” for “Docetaxel (15”, “intraperitoneal” for “intravenous”

H460 xenograft tumors [3] = type: in vivo; conditions: 3.19.3 10 mg/kg 2×wk i.p., AZD4877 10 mg/kg q4dx2 i.p., combination of both
Description: The anti-tumor activity of 3.19.3 was evaluated in combination with AZD4877 in the
H460 xenograft model of lung cancer. H460 cells were cultured in flasks as routine until the cells reached sub-confluence. Cell suspensions containing approximately 3×10E6 cells were injected subcutaneously into the right flank of male NCr nu/nu mice. When the tumor volume reached 200 mm^3, the mice were randomized in treatment groups of 8-10 mice and the treatments were initiated. 3.19.3 (10 mg/kg) in saline was injected intraperitoneally, twice per week for 2 weeks. AZD4877 (10 mg/kg) was administered by intraperitoneal administration following a q4d schedule. The dimensions of each tumor and body weights were measured at least twice per week. The volume of the tumor was calculated as: Volume=Length×(Width)×0.5 (cm^3).

[4] = test system: collagen induced arthritis
[5] = means ± SEM, 3.19.3 10 mg/kg i.p every 3 days, hIgG i.p, Prednisolone 3 mg/kg p.o daily, 14 days from disease onset

3.19.3: fully human anti-Ang-2 monoclonal antibody, wild type control; light chain SEQ ID No. 1, heavy chain SEQ ID No. 2 [Antibody 3.19.3]
% tumor growth inhibition [1]: 17% | % tumor growth inhibition (Colo205 xenograft tumors): 74% | % tumor growth inhibition (Calu6 xenograft tumors): 20% | % tumor growth inhibition (H460 xenograft tumors [2]): 67% | % tumor growth inhibition (H460 xenograft tumors [3]): 64% | clinical signs of disease progression (arthritic score) and histological assessment of synovitis and joint destruction (in words) ([4]; 3.19.3 10 mg/kg, vs vehicle control): Significant reductions | % Inhibition (of AUC of clinical disease progression) [4, 5]: 64.3% ± 8.6% | Area Under Curve (AUC) of clinical disease progression [4, 5]: 36.0 ± 8.7 | tolerability by mean body weight (in words) ([4]; mouse, in vivo, 10 mg/kg): well tolerated
